According to patent US20170253601A1, “Substituted Pyrrolidine Compounds” (EPIZYME, INC., priority 2014, published 2017):
pIC50: −log10 of the molar value.

Target: T1, human SMYD3 (Homo sapiens, UniProt Q9H7B4)
T1 construct: Expressed full-length human His-tagged SMYD3 protein was purified from cell paste; His6 (cleaved yes); TEV and SUMO cleavage sites (cleaved yes); made in house; host or cells: E. coli BL21 codonplus RIL
T1 sequence (Q9H7B4 1-428): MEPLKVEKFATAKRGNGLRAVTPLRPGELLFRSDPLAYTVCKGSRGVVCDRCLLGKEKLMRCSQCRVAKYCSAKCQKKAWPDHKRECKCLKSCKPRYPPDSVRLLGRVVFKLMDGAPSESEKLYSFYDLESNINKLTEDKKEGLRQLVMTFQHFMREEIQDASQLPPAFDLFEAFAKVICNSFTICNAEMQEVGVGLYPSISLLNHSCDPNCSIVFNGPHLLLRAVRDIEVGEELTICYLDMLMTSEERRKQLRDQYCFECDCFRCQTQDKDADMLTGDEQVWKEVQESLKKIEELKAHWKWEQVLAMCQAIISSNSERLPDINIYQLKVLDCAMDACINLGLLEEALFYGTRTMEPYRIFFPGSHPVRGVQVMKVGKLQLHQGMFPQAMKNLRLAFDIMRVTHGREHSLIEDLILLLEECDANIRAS
Assay: SMYD3 Biochemical Assay (3H-SAM, MEKK2 protein substrate, SPA)
Settings: Table 1; average of n = 1 to n = 50; read-out: SMYD3 Biochem IC50
From the text: S-adenosylmethionine (SAM), S-adenosylhomocysteine (SAH), Tris, Tween20, dimethylsulfoxide (DMSO), bovine skin gelatin (BSG), and Tris(2-carboxyethyl)phosphine hydrochloride solution (TCEP) were purchased from Sigma-Aldrich at the highest level of purity possible. ^3H-SAM was purchase from American Radiolabeled Chemicals with a specific activity of 80 Ci/mmol. 384-well opaque white OptiPlates and SPA beads (Perkin Elmer, catalog # RPNQ0013) were purchased from PerkinElmer.
N-terminally GST-tagged MEKK2 (MAP3K2) protein corresponding to reference sequence AAF63496.3 was purchased from Life Technologies (catalog # PV4010). This protein was expressed in High Five insect cells and purified to >85% purity. Protein identity was confirmed by MS/MS analysis after proteolytic digestion. The protein sequence used was:
Full-length human SMYD3 isoform 1 (BAB86333) was inserted into a modified pET21b plasmid containing a His6 tag and TEV and SUMO cleavage sites. Because two common variants of SMYD3 exist in the population, site directed mutagenesis was subsequently performed to change amino acid 13 from an asparagine to a lysine, resulting in plasmid pEPZ533. A lysine at position 13 conforms to the more commonly occurring sequence (NP_001161212).
E. coli (BL21 codonplus RIL strain, Stratagene) were transformed with plasmid pEPZ553 by mixing competent cells and plasmid DNA and incubating on ice for 30 minutes followed by heat shock at 42° C. for 1 minute and cooling on ice for 2 minutes. Transformed cells were grown and selected on LB agar with 100 μg/mL ampicillin and 17 μg/mL chloramphenicol at 37° C. overnight. A single clone was used to inoculate 200 mL of LB medium with 100 μg/mL ampicillin and 17 μg/mL chloramphenicol and incubated at 37° C. on an orbital shaker at 180 rpm. Once in log growth, the culture was diluted 1:100 into 2 L of LB medium and grown until OD600 was about 0.3 after which the culture was incubated at 15° C. and 160 rpm. Once OD600 reached about 0.4, IPTG was added to a final concentration of 0.1 mM and the cells were grown overnight at 15° C. and 160 rpm. Cells were harvested by centrifugation at 8000 rpm, for 4 minutes at 4° C. and stored at −80° C. for purification.
Expressed full-length human His-tagged SMYD3 protein was purified from cell paste by Nickel affinity chromatography after equilibration of the resin with Buffer A (25 mM Tris, 200 mM NaCl, 5% glycerol, 5 mM β-mercaptoethanol, pH7.8). The column was washed with Buffer B (Buffer A plus 20 mM imidazole) and His-tagged SMYD3 was eluted with Buffer C (Buffer A plus 300 mM imidazole). The His tag, TEV and SUMO cleavage sites were removed generating native SMYD3 by addition of ULP1 protein at a ratio of 1:200 (ULP1:SMYD3). Imidazole was removed by dialysis overnight in Buffer A. The dialyzed solution was applied to a second Nickel column and the native SMYD3 protein was collected from the column flow-through. The flow-through was dialyzed in Buffer D (25 mM Tris, 5% glycerol, 5 mM β-mercaptoethanol, 50 mM NaCl, pH7.8) and ULP1 was removed using a Q sepharose fast flow column. SMYD3 was eluted in Buffer A and further purified using an S200 size-exclusion column equilibrated with Buffer A. SMYD3 was concentrated to 2 mg/mL with a final purity of 89%.
The assays were all performed in a buffer consisting of 25 mM Tris-Cl pH 8.0, 1 mM TCEP, 0.005% BSG, and 0.005% Tween 20, prepared on the day of use. Compounds in 100% DMSO (1 ul) were spotted into a 384-well white opaque OptiPlate using a Bravo automated liquid handling platform outfitted with a 384-channel head (Agilent Technologies). DMSO (1 ul) was added to Columns 11, 12, 23, 24, rows A-H for the maximum signal control and 1 ul of SAH, a known product and inhibitor of SMYD3, was added to columns 11, 12, 23, 24, rows I-P for the minimum signal control. A cocktail (40 ul) containing the SMYD3 enzyme was added by Multidrop Combi (Thermo-Fisher). […]

Row | SMILES | pIC50
1 | CN1CCC(NC(=O)c2cc(C3CC3)on2)C1 (stereo not shown) [compound 29, 5-cyclopropyl-N-(1-methylpyrrolidin-3-yl)isoxazole-3-carboxamide] | 4.08
2 | N[C@H]1CC[C@H](C(=O)N2CC[C@@H](NC(=O)c3cc(C4CC4)on3)C2)CC1 [compound 31, N-((R)-1-((1r,4r)-4-aminocyclohexane-1-carbonyl)pyrrolidin-3-yl)-5-cyclopropyl-isoxazole-3-carboxamide] | < 5.00
3 | NCCCS(=O)(=O)N1CC[C@H](NC(=O)c2cc(C3CC3)on2)C1 [compound 35, (S)-N-(1-((3-amino-propyl)sulfonyl)pyrrolidin-3-yl)-5-cyclopropyl-isoxazole-3-carboxamide] | 5.35

The next lines start with the values.

Row | pIC50 | SMILES
4 | < 5.00 | NCCCC(=O)N1CC[C@@H](NC(=O)c2cc(C3CC3)on2)C1 [compound 30, (R)-N-(1-(4-amino-butanoyl)pyrrolidin-3-yl)-5-cyclopropyl-isoxazole-3-carboxamide]
5 | < 5.00 | NCCCC(=O)N1CC[C@H](NC(=O)c2cc(C3CC3)on2)C1 [compound 32, (S)-N-(1-(4-amino-butanoyl)pyrrolidin-3-yl)-5-cyclopropyl-isoxazole-3-carboxamide]
6 | 5.49 | N[C@H]1CC[C@H](C(=O)N2CC[C@H](NC(=O)c3cc(C4CC4)on3)C2)CC1 [compound 33, N-((S)-1-((1r,4s)-4-aminocyclohexane-1-carbonyl)pyrrolidin-3-yl)-5-cyclopropyl-isoxazole-3-carboxamide]
7 | 5.24 | NCCCS(=O)(=O)N1CC[C@@H](NC(=O)c2cc(C3CC3)on2)C1 [compound 34, (R)-N-(1-((3-amino-propyl)sulfonyl)pyrrolidin-3-yl)-5-cyclopropyl-isoxazole-3-carboxamide]
